Converted amounts (≈) assume the structure as drawn. Where two headings read alike, the source gives them in different places. Square brackets hold non-standard residues; d marks the D form. Peptide text beside a SMILES is read from it. Ahx = NCCCCCC(=O)O; βAla = NCCC(=O)O
How the values were obtained:
Experiment in all cases: microbe, parasite or virus in culture
Assay type in all cases: cell-based, Staphylococcus aureus
[1] = system: MRSA WHO-2; conditions: read-out: MIC for S. aureus strains, WHO-2
Excerpt: (§1) Secondary structure of rpoD mRNA predicted by RNA structure 4.6 software. […] Building from evidence that 12-base antisense PNAs was an effective length, five plausible target sites located in the region that satisfied both above aspects were chosen for synthesis of complementary antisense PNAs at 12-base length. Effective target site in rpoD was verified by modified MIC test of PPNA in four S. aureus strains with different characteristics in resistance phenotype. All PNAs used are covalently conjugated with the same cell penetrating peptide (KFF)3K at the carbon terminus (corresponding to the 3′ end of a conventional oligonucleotide).
(§2) Optimal anti-rpoD PPNA was selected by minimal inhibitory concentration (MIC) results determined for clinical isolates of pathogenic S. aureus species.
(§3) MICs were determined twice by the microdilution assay in sterilized 96-well polypropylene microtiter plates according to the broth microdilution guideline based on Good et al.. Briefly, single colony overnight culture of subjected bacterial cells was diluted to give a final inoculation at 10^5 CFU/mL in duplicate 100 µL Mueller Hinton (MH) broth in a low-binding 96-well microtiter plate. Stocks of PPNA, Scr PPNA and CPPs were added immediately to the indicated final concentrations. Plates were incubated at 35°C in aerobic environment for 24 h of overnight culture. MICs were the lowest PNA concentrations that prevented bacterial growth by visual inspection after overnight (24 h) growth. To verify the specific antisense effect, peptide was also conjugated to a scrambled PNA with a base sequence that was not complementary to the selected target site of rpoD mRNA. To control for nonspecific toxicity, the MIC of the control CPPs (KFF)3K and (RXR)4XB in all cases, was above the limit of measurement, which was 60 or 30 µM.

[2] = system: S. aureus ATCC29213; conditions: read-out: MIC for S. aureus strains, ATCC 29213
Excerpt: as §1, §2, §3

[3] = system: MRSA XIJING (MDR clinical isolate); conditions: broth microdilution, MH broth, inoculum 10^5 CFU/mL, 35°C, 24 h, visual inspection, determined twice, read-out: MIC for S. aureus strains, XIJING
Excerpt: as §1, §2, §3

[4] = system: MRSA/VISA Mu50; conditions: broth microdilution, MH broth, inoculum 10^5 CFU/mL, 35°C, 24 h, visual inspection, determined twice, read-out: MIC for S. aureus strains, Mu 50
Excerpt: as §1, §2, §3

[5] = Staphylococcus aureus, broth microdilution, MH broth, inoculum 10^5 CFU/mL, 35°C, 24 h, visual inspection, determined twice, MRSA
[6] = Staphylococcus aureus, ATCC29213, broth microdilution, MH broth, inoculum 10^5 CFU/mL, 35°C, 24 h, visual inspection, determined twice, antibiotic sensitive QC strain

SMILES | MIC ([1]; WHO-2, 24 h) [µM] | MIC ([2]; ATCC29213, 24 h) [µM] | MIC [3] [µM] | MIC [4] [µM] | MIC ([1]; broth microdilution, MH broth, inoculum 10^5 CFU/mL, 35°C, 24 h, visual inspection, determined twice, MRSA) [µM] | MIC ([2]; broth microdilution, MH broth, inoculum 10^5 CFU/mL, 35°C, 24 h, visual inspection, determined twice, antibiotic sensitive QC strain) [µM] | MIC ([3]; Staphylococcus aureus) [µM] | MIC [1, 5] [µM] | MIC [2, 6] [µM] | MIC ([4]; Staphylococcus aureus) [µM]
NCCCC[C@H](NC(=O)[C@H](Cc1ccccc1)NC(=O)[C@H](Cc1ccccc1)NC(=O)[C@H](CCCCN)NC(=O)[C@H](Cc1ccccc1)NC(=O)[C@H](Cc1ccccc1)NC(=O)[C@H](CCCCN)NC(=O)[C@H](Cc1ccccc1)NC(=O)[C@H](Cc1ccccc1)NC(=O)[C@@H](N)CCCCN)C(=O)O [(KFF)3K] (H-KFFKFFKFFK-OH) | >60 | >60 | – | – | – | – | – | – | – | –
N=C(N)NCCC[C@H](NC(=O)CCCCCNC(=O)[C@H](CCCNC(=N)N)NC(=O)[C@H](CCCNC(=N)N)NC(=O)CCCCCNC(=O)[C@H](CCCNC(=N)N)NC(=O)[C@H](CCCNC(=N)N)NC(=O)CCCCCNC(=O)[C@H](CCCNC(=N)N)NC(=O)[C@H](CCCNC(=N)N)NC(=O)CCCCCNC(=O)[C@@H](N)CCCNC(=N)N)C(=O)NCCCCCC(=O)NCCC(=O)O [(RXR)4XB] (H-R[Ahx]RR[Ahx]RR[Ahx]RR[Ahx]R[Ahx][βAla]-OH) | > 30 | > 30 | > 30 | > 30 | – | – | – | – | – | –
CC1(C)S[C@@H]2[C@H](NC(=O)[C@H](N)c3ccccc3)C(=O)N2[C@H]1C(=O)O [ampicillin] | – | – | – | – | – | – | > 1020 | 256 (≈ 89.4 µg/mL) | 1 (≈ 0.349 µg/mL) | > 1020
CC(C)(O/N=C(\C(=O)N[C@@H]1C(=O)N2C(C(=O)[O-])=C(C[n+]3ccccc3)CS[C@H]12)c1csc(N)n1)C(=O)O [ceftazidine] | – | – | >1024 | 1024 (≈ 560 µg/mL) | 256 (≈ 140 µg/mL) | 8 (≈ 4.37 µg/mL) | – | – | – | –
Cc1onc(-c2ccccc2)c1C(=O)N[C@@H]1C(=O)N2[C@@H]1SC(C)(C)[C@@H]2C(=O)O [oxacillin] | – | – | – | – | – | – | > 1020 | 512 (≈ 206 µg/mL) | 0.5 (≈ 0.201 µg/mL) | > 1020

— publication PMC3254626, “Targeting RNA Polymerase Primary σ^70 as a Therapeutic Strategy against Methicillin-Resistant Staphylococcus aureus by Antisense Peptide Nucleic Acid” (PLoS ONE, 2012)
